One assay relates to MOLM-13 cells. The assay can be described thus: MOLM-13 Cellular Assay. It is filed as cell-based. The note with it: 72 hours exposure, cell viability by CellTiter-Glo. Here is the method: MOLM-13 cells were obtained from DSMZ and were maintained in RPMI 1640+Glutamax+25 mM HEPES (Invitrogen, catalog number 72400) supplemented with 10% heat inactivated fetal bovine serum (FBS; Invitrogen, catalog number 16140). The day prior to assay set-up, cells were pelleted, resuspended in fresh media, counted, and cells were plated at 0.4×10^6 cell/mL in a T150 flask. On the day of the assay, cells were pelleted, resuspend in fresh media, counted, and seeded at 5,000 cells/well in white opaque 96-well tissue culture treated microplates (Perkin Elmer, catalog number 6005680). Cells were exposed to different concentrations of test compounds at 37° C., 5% CO2 for 72 hours immediately after seeding. Cell viability was acquired on a Perkin Elmer Envision 2104 multilabel reader using the CellTiter-Glo assay (Promega) according to the manufacturer's instructions.
(Cellular ATP, detected with luciferase, serves as a proxy for viable cell number.)

Another assay deals with T1, human DHODH (Homo sapiens, UniProt Q02127).
T1 construct: purchased Proteros PR-0044
The assay is described as follows: DHODH Enzymatic Assay. The assay is classed as biochemical. The note with it: purified human DHODH; DCIP absorbance, end-point mode. How it is done: To detect DHODH enzyme activities, dichloroindophenol (DCIP) is added as the final electron acceptor in the assay. DCIP can accept electrons from the reduced coenzyme Q generated in the assay, or from dihydroorotate (DHO) via FMN by binding presumably to the ubiquinone pocket. DCIP solutions are blue, with an intense absorbance around 600 nm, but becomes colorless upon reduction (J. Biol. Chem. (1986) 261, 11386). The assay buffer contained […], pH 7.5, 150 mM NaCl, 0.5 mM EDTA, and 0.1% Triton X-100 in MilliQ water. Substrate consisting of 20 mM DHO, 5 mM CoQ6, and 1 mM DCIP in assay buffer, initiates the reaction. The assay is run in end-point mode by quenching the reaction with the potent DHODH inhibitor brequinar. Absorbance measurements were obtained using the BMG Phera Star plate-reading spectrophotomer. Purified human DHODH was purchased from Proteros (cat. No. PR-0044). Chemicals were purchased from Sigma-Aldrich, Teknova, and Avanti Polar Lipids. Liquid handling was performed using Labcyte Echo and Formulatrix Tempest.

T1 sequence (Q02127 whole entry): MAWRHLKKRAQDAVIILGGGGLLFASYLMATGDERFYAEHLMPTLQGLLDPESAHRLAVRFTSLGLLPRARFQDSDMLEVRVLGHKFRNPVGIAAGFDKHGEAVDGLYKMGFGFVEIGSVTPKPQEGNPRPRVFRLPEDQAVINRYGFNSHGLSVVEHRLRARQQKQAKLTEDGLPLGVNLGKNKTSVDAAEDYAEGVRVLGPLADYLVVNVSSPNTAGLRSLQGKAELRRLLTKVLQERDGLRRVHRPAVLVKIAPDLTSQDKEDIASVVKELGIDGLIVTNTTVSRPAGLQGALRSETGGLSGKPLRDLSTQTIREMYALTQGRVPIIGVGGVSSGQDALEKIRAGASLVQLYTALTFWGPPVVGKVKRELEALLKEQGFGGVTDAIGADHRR

As usually defined, the IC50 is the point on the concentration scale where inhibition reaches its midpoint. A higher IC50 goes with a need for much substance. For the compound `Cc1n[nH]c(Cl)c1-c1cc(C(C)C)c2cc(-c3cn(C)c(CO)n3)c(F)cc2n1` [Example 32, (4-(2-(5-Chloro-3-methyl-1H-pyrazol-4-yl)-7-fluoro-4-isopropylauinolin-6-yl)-1-methyl-1H-imidazol-2-yl)methanol], the half-inhibitory concentration (IC50) with MOLM-13 cells (Homo sapiens, MOLM-13, 72 h) was determined as 3 nM; at human DHODH, 1.2 nM. For the compound `CCn1c(CO)nn(-c2cc3c(C(C)C)cc(-c4c(C)ccnc4Cl)nc3cc2F)c1=O` [Example 35, 1-(2-(2-Chloro-4-methylpyridin-3-yl)-7-fluoro-4-isopropylquinolin-6-yl)-4-ethyl-3-(hydroxymethyl)-1H-1,2,4-triazol-5 (4H)-one], the IC50 was found to be 4 nM with MOLM-13 cells (Homo sapiens, MOLM-13, 72 h) and 4.7 nM at human DHODH. For `C=C(C)c1cc(-c2ccccc2C)nc2cc(F)c(-n3nc(CO)n(CC)c3=O)cc12` [Example 39, 4-Ethyl-1-(7-fluoro-4-(prop-1-en-2-Yl)-2-(o-tolyl)quinolin-6-yl)-3-(hydroxymethyl)-1H-1,2,4-triazol-5 (4H)-one] the same measures were 0.2 nM and 0.24 nM.

As to `Cc1n[nH]c(Cl)c1-c1cc(C(C)C)c2cc(-c3nc(CO)n(C)n3)c(F)cc2n1` [Example 30, (3-(2-(5-Chloro-3-methyl-1H-pyrazol-4-yl)-7-fluoro-4-isopropylauinolin-6-yl)-1-methyl-1H-1,2,4-triazol-5-yl)methanol], the IC50 stood at 2 nM in the assay with MOLM-13 cells (Homo sapiens, MOLM-13, 72 h) and 1.2 nM against human DHODH. As for `CCn1c(CO)nn(-c2cc3c(C(C)C)cc(-n4nc(C)cc4C)nc3cc2F)c1=O` [Example 12, 1-(2-(3,5-Dimethyl-1H-pyrazol-1-yl)-7-fluoro-4-isopropylquinolin-6-yl)-4-ethyl-3-(hydroxymethyl)-1H-1,2,4-triazol-5 (4H)-one], the half-maximal inhibitory concentration (IC50) in the assay with MOLM-13 cells (Homo sapiens, MOLM-13, 72 h) turned out to be 5 nM; on human DHODH, 2.3 nM. On to `CCn1c(CO)nn(-c2cc3c(C(C)C(F)(F)F)cc(-c4ccccc4C)nc3cc2F)c1=O` (single isomer, unassigned) [Example 37, (R*)-4-Ethyl-1-(7-fluoro-2-(o-tolyl)-4-(1,1,1-trifluoropropan-2-yl)quinolin-6-yl)-3-(hydroxymethyl)-1H-1,2,4-triazol-5 (4H)-one], for which the figures for the concentration for half-maximal inhibition (IC50) in the assay on MOLM-13 cells and on human DHODH were 1 nM and 5.3 nM, respectively. As to `Cc1n[nH]c(C(F)(F)F)c1-c1cc(C(C)C)c2cc(-c3nc(C(C)O)n(C)n3)c(F)cc2n1` (stereo not drawn) [Example 29, 1-(3-(7-Fluoro-4-isopropyl-2-(3-methyl-5-(trifluoromethyl)-1H-pyrazol-4-yl)quinolin-6-yl)-1-methyl-1H-1,2,4-triazol-5-yl)ethan-1-ol], the IC50 with MOLM-13 cells (Homo sapiens, MOLM-13, 72 h) turned out to be 0.36 nM; against human DHODH it was 1 nM. The matching figures for `CCN(CC)c1cc(C(C)C)c2cc(-n3nc(CO)n(CC)c3=O)c(F)cc2n1` [Example 13, 1-(2-(Diethylamino)-7-fluoro-4-isopropylquinolin-6-yl)-4-ethyl-3-(hydroxymethyl)-1H-1,2,4-triazol-5 (4H)-one]: more than 100 nM and 270 nM. For `CCn1c(CO)nn(-c2cc3c(C(C)C)nc(-c4c(C)n[nH]c4C(F)(F)F)nc3cc2F)c1=O` [Example 34, 4-Ethyl-2-(7-fluoro-4-isopropyl-2-(3-methyl-5-(trifluoromethyl)-1H-pyrazol-4-yl)quinazolin-6-yl)-5-(hydroxymethyl)-2,4-dihydro-3H-1,2,4-triazol-3-one] the same measures were 4 nM and 5.2 nM. For `CCn1c(CO)nn(-c2cc3c(C(C)C)nc(-c4ccccc4C)nc3cc2F)c1=O` [Example 10, 4-Ethyl-2-(7-fluoro-4-isopropyl-2-(o-tolyl)quinazolin-6-yl)-5-(hydroxymethyl)-2,4-dihydro-3H-1,2,4-triazol-3-one] the same measures were 2.2 nM and 1.9 nM. In the case of `Cc1n[nH]c(C(F)(F)F)c1-c1cc(C(C)C)c2cc(-c3cn(C)c(CO)n3)c(F)cc2n1` [Example 33, (4-(7-Fluoro-4-isopropyl-2-(3-methyl-5-(trifluoromethyl)-1H-pyrazol-4-yl)quinolin-6-yl)-1-methyl-1H-imidazol-2-yl)methanol], the IC50 in the assay with MOLM-13 cells (Homo sapiens, MOLM-13, 72 h) was determined as 1 nM; against human DHODH it was 2 nM.

Turning to `CCn1c(CO)nn(-c2cc3c(C(C)C)cc(N4CCCC[C@@H]4C)nc3cc2F)c1=O` [Example 17, (S)-4-Ethyl-2-(7-fluoro-4-isopropyl-2-(2-methylpiperidin-1-yl)quinolin-6-yl)-5-(hydroxymethyl)-2,4-dihydro-3H-1,2,4-triazol-3-one], the IC50 was 40 nM in the assay with MOLM-13 cells (Homo sapiens, MOLM-13, 72 h) and 230 nM against human DHODH. For `CCn1c(CO)nn(-c2cc3c(C(C)C)cc(OC4CCC4)nc3cc2F)c1=O` [Example 6, 1-(2-Cyclobutoxy-7-fluoro-4-isopropylauinolin-6-yl)-4-ethyl-3-(hydroxymethyl)-1H-1,2,4-triazol-5 (4H)-one], the IC50 in the assay on MOLM-13 cells (Homo sapiens, MOLM-13, 72 h) is more than 100 nM; against human DHODH it was 1080 nM. Regarding `CCC(CC)Oc1cc(C(C)C)c2cc(-n3nc(CO)n(CC)c3=O)c(F)cc2n1` [Example 5, 4-Ethyl-1-(7-fluoro-4-isopropyl-2-(pentan-3-yloxy)quinolin-6-yl)-3-(hydroxymethyl)-1H-1,2,4-triazol-5 (4H)-one], the IC50 in the assay on MOLM-13 cells (Homo sapiens, MOLM-13, 72 h) was more than 100 nM; at human DHODH, 332 nM.

Consider `CCn1c(CO)nn(-c2cc3c(C(C)C)cc(-c4ccccc4C)[n+]([O-])c3cc2F)c1=O` [Example 21, 6-(4-Ethyl-3-(hydroxymethyl)-5-oxo-4,5-dihydro-1H-1,2,4-triazol-1-yl)-7-fluoro-4-isopropyl-2-(o-tolyl)quinoline 1-oxide], for which the IC50 was 5 nM with MOLM-13 cells (Homo sapiens, MOLM-13, 72 h) and 4.6 nM on human DHODH. `CCn1c(CO)nn(-c2cc3c(C(C)C)cc(-c4c[nH]nc4C(F)(F)F)nc3cc2F)c1=O` [Example 23, 4-Ethyl-1-(7-fluoro-4-isopropyl-2-(3-(trifluoromethyl)-pH-pyrazol-4-yl)quinolin-6-yl)-3-(hydroxymethyl)-1H-1,2,4-triazol-5 (4H)-one]: the IC50 with MOLM-13 cells (Homo sapiens, MOLM-13, 72 h) was 9 nM; against human DHODH, 14 nM. The matching figures for `CCn1c(CO)nn(-c2cc3c(C(C)C)cc(C4CCOCC4)nc3cc2F)c1=O` [Example 20, 4-Ethyl-1-(7-fluoro-4-isopropyl-2-(tetrahydro-2H-pyran-4-yl)quinolin-6-yl)-3-(hydroxymethyl)-1H-1,2,4-triazol-5 (4H)-ene]: more than 100 nM and 730 nM. Turning to `CCn1c(CO)nn(-c2cc3c(C(C)C)cc(-c4cc(O)ncc4C)nc3cc2F)c1=O` [Example 24, 4-Ethyl-1-(7-fluoro-2-(2-hydroxy-5-methylpyridin-4-yl)-4-isopropylquinolin-6-yl)-3-(hydroxymethyl)-1H-1,2,4-triazol-5 (4H)-one], the half-maximal inhibitory concentration (IC50) in the assay on MOLM-13 cells (Homo sapiens, MOLM-13, 72 h) is more than 100 nM; against human DHODH, 33 nM. For `CCn1c(CO)nn(-c2cc3c(C(C)C)cc(-c4ccnc(O)c4C)nc3cc2F)c1=O` [Example 22, 4-Ethyl-1-(7-fluoro-2-(2-hydroxy-3-methylpyridin-4-yl)-4-isopropylquinolin-6-yl)-3-(hydroxymethyl)-1H-1,2,4-triazol-5 (4H)-one] the same measures were more than 100 nM and 3.9 nM. With `CCn1c(CO)nn(-c2cc3c(C(C)C)cc(N4CCCCC4)nc3cc2F)c1=O` [Example 14, 4-Ethyl-1-(7-fluoro-4-isopropyl-2-(piperidin-1-yl)quinolin-6-yl)-3-(hydroxymethyl)-1H-1,2,4-triazol-5 (4H)-one], the IC50 with MOLM-13 cells (Homo sapiens, MOLM-13, 72 h) turned out to be 100 nM; against human DHODH, 120 nM. The matching figures for `CCn1c(CO)nn(-c2cc3c(C(C)C)cc(-c4c(Cl)c(OC)nn4C)nc3cc2F)c1=O` [Example 26, 2-(2-(4-Chloro-3-methoxy-1-methyl-1H-pyrazol-5-yl)-7-fluoro-4-isopropylauinolin-6-yl)-4-ethyl-5-(hydroxymethyl)-2,4-dihydro-3H-1,2,4-triazol-3-one]: 7 nM and 13 nM.

Regarding `CCn1c(CO)nn(-c2cc3c(C(C)C)cc(-c4c(C(F)(F)F)n[nH]c4Cl)nc3cc2F)c1=O` [Example 27, 1-(2-(5-Chloro-3-(trifluoromethyl)-1H-pyrazol-4-yl)-7-fluoro-4-isopropylquinolin-6-yl)-4-ethyl-3-(hydroxymethyl)-1H-1,2,4-triazol-5 (4H)-one], the half-maximal inhibitory concentration (IC50) in the assay on MOLM-13 cells (Homo sapiens, MOLM-13, 72 h) was found to be 6 nM; against human DHODH it was 0.7 nM. Take `[2H]C([2H])([2H])c1ccccc1-c1cc(C(C)C)c2cc(-n3nc(CO)n(CC)c3=O)c(F)cc2n1` [Example 38, 4-Ethyl-1-(7-fluoro-4-isopropyl-2-(o-methyl-d3-phenyl)quinolin-6-yl)-3-(hydroxymethyl)-1H-1,2,4-triazol-5 (4H)-one]: half-maximal inhibition against human DHODH (IC50) required 1.7 nM. That is a single-digit nanomolar value.

(Values after US20230037448A1, “FLUORINATED QUINOLINE AND QUINOXALINE DERIVATIVES AS DIHYDROOROTATE DEHYDROGENASE (DHODH) INHIBITORS FOR THE TREATMENT OF CANCER, AUTOIMMUNE AND INFLAMMATORY DISEASES” (Janssen Biotech, Inc., priority 2019, published 2023).)
